Test system: A549 cells transfected with the LARGE portion of the isoform 4 (PC4-5)
Assay: Cell proliferation by CFSE and flow cytometry in transfected A549 cells
Format: cell-based, human
Conditions: FIG. 6B; for tumour growth / cancer proliferation in the cells transfected with the "large" subunit of the isoform 4: concentration not stated at this place
Experimental: Transfections. A549 cells, lung adenocarcinoma, were transfected by means of marketable kits for 72 hours in transient way with the plasmid vectors: 1. PC4-1, miming the whole isoform 1 of the caspase-4; 2. PC4-2, miming CARD+LARGE subunit; 3. PC4-3, miming LARGE+SMALL subunit of the isoform 1; 4. PC4-4, miming LARGE subunit of the isoform 1 and 5. PC4-5, miming LARGE subunit of the isoform 4 of the caspase-4. The cell proliferation was evaluated through method of CFSE (1 μM), analysed by means of flow cytometry. In some experiments, the transfected cells marked with CFSE, were subjected to treatment with two leader compounds (compound 5: COMP-5; compound 6: COMP-6).
In order to understand the role of the isoform 4 in the cancer growth, the A549 cells, cells of lung adenocarcinoma, were transfected with specific vectors, containing specific portions of the isoform 1 and isoform 4 as described in FIG. 6A. It was observed that the isoform 4 and 1 are both capable of promoting cancer proliferation when the LARGE subunit is expressed with respect to the other considered structures (FIG. 6A). At last, the cells transfected with the large subunit of the isoform 1 (PC4-4) and 4 (PC4-5) were treated with leading compound with the purpose of verifying a cancer growth decrease.

Substance: Ac-VVDC-NH2 [compound 6]
- cancer growth of the A549 cells transfected with the LARGE portion of the isoform 4 (compound at 10 nM, A549 transfected with PC4-5, CFSE flow cytometry): capable of reducing significantly the cancer growth
- tumour growth / cancer proliferation in the cells transfected with the "large" subunit of the isoform 4: can be inhibited
- tumour growth / cancer proliferation in the cells transfected with the "large" subunit of the isoform 4 (listed as Ac-VVDC-NH2): significant decrease in the tumour growth
